What was measured:
[1] = system: rat carotid artery balloon injury model; assay: Inhibition of late neointimal lesion formation in the 28 day rat carotid artery balloon injury model; assay type: in vivo
rabbit iliac stent model = assay: Inhibition of restenosis at 28 days in the rabbit iliac stent model; assay type: in vivo, New Zealand White rabbit; settings: 28 days after stenting, vs placebo
Method: A.2 Inhibition of Restenosis at 28 Days in the Rabbit Iliac Stent Model
A combined angioplasty and stenting procedure is performed in New Zealand White rabbit iliac arteries. Iliac artery balloon injury is performed by inflating a 3.0×9.0 mm angioplasty balloon in the mid-portion of the artery followed by “pull-back” of the catheter for 1 balloon length. Balloon injury is repeated 2 times, and a 3.0×12 mm stent is deployed at 6 atm for 30 seconds in the iliac artery. Balloon injury and stent placement is then performed on the contralateral iliac artery in the same manner. A post-stent deployment angiogram is performed. All animals receive oral aspirin 40 mg/day daily as anti-platelet therapy and are fed standard low-cholesterol rabbit chow. Twenty-eight days after stenting, animals are anesthetized and euthanized and the arterial tree is perfused at 100 mmHg with lactated Ringer's for several minutes, then perfused with 10% formalin at 100 mmHg for 15 minutes. The vascular section between the distal aorta and the proximal femoral arteries is excised and cleaned of periadventitial tissue. The stented section of artery is embedded in plastic and sections are taken from the proximal, middle, and distal portions of each stent. All sections are stained with hematoxylin-eosin and Movat pentachrome stains. Computerized planimetry is performed to determine the area of the internal elastic lamina (IEL), external elastic lamina (EEL) and lumen. The neointima and neointimal thickness is measured both at and between the stent struts. The vessel area is measured as the area within the EEL. Data are expressed as mean±SEM. Statistical analysis of the histologic data is accomplished using analysis of variance (ANOVA) due to the fact that two stented arteries are measured per animal with a mean generated per animal. A P<0.05 is considered statistically significant.
An MIA, e.g. a compound of formula 1, e.g. epothilone B is administered orally by gavage at an initial dose one day prior to stenting, then dosed at 50% of the initial dose from the day of stenting until day 27 post-stenting.

[2] = (+)-Discodermolide release from polymer coatings in aqueous solution; assay type: physicochemical; settings: polylactide glycolide coated stent pieces in PBS pH 7.4 or PEG 400/water 40/60 v/v, 37° C., solutions changed daily; stable = less than 10% of variation of the release rate
Method: (§1) A stent (e.g. a Multi-Link Vision stent, Guidant Corp.; or a DRIVER stent, Medtronic Corp.) is weighed and then mounted on a rotating or other support for coating with a polymer or other synthetic or biologic carrier used as a drug reservoir. In an example of an application of one such carrier, while the stent is rotating, a 100 μl aliquot of a solution of polylactide glycolide, 0.75 mg/ml of (+)-discodermolide and 0.0015 mg/ml 2,6-di-tert-butyl-4-methylphenol dissolved in a 50:50 mixture of methanol and tetrahydrofuran, is coated onto it. The coated stent is removed from the support and allowed to air-dry. After a final weighing the amount of coating on the stent is determined.
A.4 (+)-Discodermolide Release from Polymer Coatings in Aqueous Solution
Four 2 cm pieces of coated stents as described above are placed into 100 mL of phosphate buffer solution (PBS) having a pH of 7.4. Another 4 pieces from each series are placed into 100 mL of polyethylene glycol (PEG)/water solution (40/60 v/v, MW of PEG=400). The stent pieces are incubated at 37° C. in a shaker. The buffer and PEG solutions are changed daily and different assays are performed on the solution to determine the released (+)-discodermolide concentrations.

[3] = (+)-Discodermolide release from polymer coatings in plasma; assay type: physicochemical; settings: coated stent pieces in citrated human plasma, 37° C., plasma changed daily
Method: as §1
A.5 (+)-Discodermolide Release from Polymer Coatings in Plasma
Release of (+)-discodermolide in plasma can also be studied. 1 cm pieces of a coated stent are put into 1 mL of citrated human plasma (from Helena Labs.) in lyophilized form and reconstituted by adding 1 mL of sterile deionized water. Three sets of stent plasma solutions are incubated at 37° C. and the plasma is changed daily. Different assays are performed on the solution to determine the released (+)-discodermolide concentrations.

[4] = administered locally to the adventitia via catheter/Alzet minipump

## C/C(=C\c1csc(C)n1)[C@@H]1C[C@@H]2O[C@]2(C)CCC[C@H](C)[C@H](O)[C@@H](C)C(=O)C(C)(C)[C@@H](O)CC(=O)O1 [epothilone B]
[1]; administered locally to the adventitia adjacent to the ballooned carotid via catheter/Alzet minipump, day 1
  infiltration of CD45+ leukocytes: potent inhibition
[1]; [4]
  constrictive remodeling: potent inhibition
  early (9 days post-ballooning) and late (21-31 days post-ballooning) neointimal lesions: potent inhibition
[1]; rats dosed orally, daily, 1 day after balloon injury
  CD45-positive leukocyte infiltration into the vessel wall and adventitia: significantly reduce
[1]; rats dosed orally, daily, at 9 and 12 days
  neointimal lesion formation following balloon injury: significantly reduce
Rabbit iliac stent model; oral gavage from one day prior to stenting until day 27
  extent of restenotic lesion formation: marked reduction
Rabbit iliac stent model; oral gavage
  lesion formation in the portions of artery immediately proximal and immediately distal to the stent: inhibited
  number of inflammatory cells, especially in the area surrounding the stent struts: significantly reduced

## (+)-discodermolide
[2]
  drug release from coated stents: stable (+)-discodermolide release
[3]
  drug release from coated stents in plasma: stable (+)-discodermolide release
